What was measured:
Format in all cases: cell-based
[1] = tested on: NMDA-type glutamate receptor; experiment: Phosphorylation (Ser897) of NMDA-type glutamate receptor in rat primary culture neurons (western blot, Anti-phospho-NR1); details: 50 μM Compound A; cells recovered 1, 2, 5, 15 and 30 minutes after
Description: Using primary culture neurons from the rat […], phosphorylation of the NMDA-type glutamate receptor by GPR52 agonists was studied. Rat (Wistar, Charles River Japan) embryonic brain (E19) was dissected to isolate the cerebral cortex, and the cells were prepared using Neuron Dispersion Set (Dainippon Pharmaceutical). The cells were plated on a 24-well poly-L-lysine plate (3×10^5 cells/well) and incubated for 2 weeks in Neuro Basal (B27, containing 0.5 mM glutamine, GIBCO) medium. Compound A was added to the above cells at a final concentration of 50 μM, and the cells were recovered 1, 2, 5, 15 and 30 minutes after. After the cells were lysed in Invitrogen's NuPAGE Sample Buffer (containing DTT), western blot analysis was performed using antibody Anti-phospho-NR1 (Ser897) (Upstate).

[2] = tested on: NMDA-type glutamate receptor; experiment: Activation of NMDA-type glutamate receptor in neurons from rat embryonic cerebral cortex (fura-2 intracellular calcium, AQUACOSMOS)
Description: Neurons from rat embryonic cerebral cortex (CAMBREX) were cultured in a 48-well poly-L-lysine (Sumitomo Bakelite) for 14-15 days by a modification of the method attached. A neuron culture medium (Dainippon Pharmaceutical) was used as a medium, unless otherwise indicated. Changes in intracellular calcium levels were assayed using AQUACOSMOS (Hamamatsu Photonics). For assaying the changes in intracellular calcium levels, the following pretreatment was made. First, in order to add fluorescence dye fura-2/AM (Molecular Probes) to cells, an assay buffer used to wash the cells immediately before the assay was prepared. To 1000 ml of HBSS (Invitrogen) supplemented with 20 ml of 1M HEPES (pH7.4) (DOJIN) (hereinafter HBSS/HEPES solution), 10 ml of a solution prepared by dissolving 710 mg of Probenecid (Sigma) in 5 ml of 1N NaOH and further adding 5 ml of the HBSS/HEPES solution thereto was added, and the resulting solution was used as the assay buffer. Next, an equal volume of 20% Pluronic acid (Molecular Device) was added to and mixed with the fura-2/AM stock solution. The mixture was dissolved in the assay buffer in a final concentration of 5 μM fura-2 to prepare the fura-2 fluorescence dye solution. The fura-2 fluorescence dye solution was loaded on neurons from the rat embryonic cerebral cortex, followed by incubation for 30-60 minutes. Thereafter, the changes in calcium levels in the individual neurons were determined using AQUACOSMOS (Hamamatsu Photonics).
Activation of the NMDA-type glutamate receptor in the cerebral cortex was analyzed by the procedures described in EXAMPLE 9.

GPR52 [3] = target: T1, GPR52 (Homo sapiens, UniProt Q9Y2T5); experiment: Screening of GPR52 agonists: intracellular cAMP in GPR52 stable expression cells (AlphaScreen cAMP Assay Kit); design: expressed in transfected cells; details: secondary screening at 100-0.1 μM
Description: The GPR52 stable expression cells prepared in REFERENCE EXAMPLE 1 were incubated in a 150 cm^2 at 37° C. overnight in a CO2 incubator. After the incubation, the cells were detached with 0.5 mM EDTA/PBS, and washed in PBS. The cells were then suspended at a density of 1×10^7 cells/ml in Buffer 1 (HBSS+0.1% BSA, 25 mM HEPES, pH 7.3, 0.5 mM IBMX). This cell suspension, 440 μl, was mixed with 22 μl of Anti-cAMP Acceptor Beads of AlphaScreen cAMP Assay Kit (Perkin Elmer) and 638 μl of Buffer 1. The resulting mixture was dispensed on a white 96-well plate (Costar) by 10 μl each. Next, 10 μl each of the test compound dilutions in Buffer 1 was added to each well. After shaking at room temperature for 30 minutes, 20 μl of Biotinyl cAMP and 82 μl of Streptavidin Donor Beads of AlphaScreen cAMP Assay Kit was added to 40 ml of Buffer 2 (HBSS+0.1% BSA, 25 mM HEPES, pH 7.3, 1.5% Tween 20) and the resulting mixture was added to all wells of the plate by 30 μl each. The plate was kept shaken at room temperature for 3 hours and the fluorescence intensities were measured by Fusion α (Perkin Elmer).
Secondary screening was applied to these compounds in various concentrations (100 μM, 30 μM, 10 μM, 3 μM, 1 μM and 0.1 μM) using the procedures described in EXAMPLE 11 (detailed analysis).

GPR52 [4] = target: T1, GPR52; experiment: Changes in intracellular calcium levels on FLIPR in CNGC-E583M/HEK293 cells transiently expressing human GPR52; design: expressed in transfected cells; host or cells: CNGC-E583M/HEK293 cells (HEK293 stably expressing rat olfactory cyclic nucleotide-gated channel E583M), transient transfection of pAKKO-GPR52; details: human GPR52 transiently expressed in CNGC-E583M/HEK293; reserpine 1.0-100 μM (FIG. 1), methoctramine 15-75 μM (FIG. 2); no such response in control cells transfected with other receptor vector
Description: The stable expression cell line (CNGC-E583M/HEK293 cell line) of rat olfactory cyclic nucleotide-gated channel (CNGC-E583M), which was used as a host cell, was obtained by inserting rat olfactory cyclic nucleotide-gated channel (CNGC-E583M) cDNA into expression vector pcDNA3.1(+) neo (Invitrogen) (pcDNA3.1-CNGC), transfecting pcDNA3.1-CNGC into HEK293 cells (purchased from ATCC) in a conventional manner, and incubating the cells in DMEM (Dulbecco's modified Eagle medium) supplemented with 10% fetal calf serum (Invitrogen) and 800 mg/l geneticin (Invitrogen) under 5% CO2 at 37° C. [Fagan et al., FEBS, 500, 85 (2001); Reinescheid et al., European Journal of Pharmacology, 478, 27 (2003)]. The CNGC-E583M/HEK293 cells were incubated in a collagen-coated 75 cm^2 flask. […] First, an assay buffer was prepared to add fluorescence dye Fluo-3AM (DOJIN) to the cells or to wash the cells immediately before the FLIPR assay. […] The mixture was then added to 10.6 ml of the assay buffer supplemented with 105 μl of fetal calf serum, and 20 μl of 500 mM IBMX/DMSO was further added to prepare a fluorescence dye solution. The fluorescence dye solution was dispensed onto the cell plate by 100 μl each/well using an 8-channel pipette and the cells were incubated at 37° C. in a 5% CO2 incubator for an hour (dye loading). […]

human GPR52-GFP = target: T2, human GPR52-GFP (Homo sapiens, UniProt Q9Y2T5, I167T); experiment: Internalization of GPR52-GFP fusion protein expressed in CHO cells (confocal microscopy); details: reserpine 10^-4 M, 30 minutes after addition
T2 construct: expressed in transfected cells; host or cells: CHO cells, vector pAKKO-111H
Description: An expression plasmid was constructed to express a fused protein of Green Fluorescent Protein (GFP) cDNA isolated from jellyfish or Auquorea victoria, fused to GPR52 at the C-terminus to fit the translation frame. In this case, a fragment excised from GFP expression vector pQBI25 (Takara Shuzo) was used as GFP cDNA. In GPR52, its termination codon was modified by PCR to recognition sequence with restriction enzyme NheI, and the GFP fragment was ligated thereto, which was inserted into the expression vector pAKKO-111H [Biochem. Biophys. Acta, 1219, 251 (1994)] and transfected to CHO cells in a conventional manner to obtain the human GPR52-GFP expression CHO cell line. The human GPR52-GFP expression CHO cells were suspended in a growth medium [αMEM (containing nucleic acids: Invitrogen) supplemented with 10% fetal calf serum (GIBCO BRL)] and plated on a Lab-TekII cover glass chamber with 4 chambers (Nalgen Nunc) in a concentration of 0.6×10^5 cells/chamber. […] In this case, GFP was excited at 488 nm.

GPR52 [5] = target: T1, GPR52; experiment: Increase of intracellular cAMP levels in human GPR52 expression CHO cell line (cAMP Screen Kit); design: expressed in transfected cells; details: reserpine in various concentrations, 30 minutes; negative controls Mock CHO and TGR5 CHO cell lines (FIG. 3)
Description: The human GPR52 expression CHO cells obtained in REFERENCE EXAMPLE 1 was washed in the assay medium (HBSS (Gibco BRL) supplemented with 0.2 mM isobutylmethylxanthine), followed by incubation for 30 minutes under conditions at 37° C. in 5% CO2. Then, reserpine diluted in the assay medium was added in various concentrations. The assay buffer alone was used as a Base. After the addition, incubation was conducted for 30 minutes under conditions at 37° C. in 5% CO2. The culture supernatant was discarded and the intracellular cAMP level was assayed on the plate reader (EnVision, Perkin-Elmer) in accordance with the protocol of cAMP Screen Kit (Applied Biosystems). As negative controls, the CHO cell line (Mock) wherein no exogenous receptor was expressed and the CHO cell line (TGR5) wherein Gs-conjugated receptor TGR5 was stably expressed were co-assayed.

Cc1ncc2c(n1)N(CCCN1CCNCC1)CCC2Nc1cccc(Oc2cccc(Cl)c2)c1.Cl.Cl.Cl.Cl (stereo not shown) [Compound A, N-[3-(3-chlorophenoxy)phenyl]-2-methyl-8-[3-(1-piperazinyl)propyl]-5,6,7,8-tetrahydropyrido[2,3-d]pyrimidine-5-amine tetrahydrochloride]
phosphorylation (Ser897) of the NMDA-type glutamate receptor [1]: induced phosphorylation (Ser897) | calcium level increase on addition after glutamate ([2]; 10 μM glutamate, then 10 μM Compound A during diminution of the calcium increase): reactivated to induce the calcium level increase | calcium level increase, compound alone without glutamate ([2]; 15 μM Compound A alone, glutamate not added): any increase in calcium levels was not observed | EC50 (GPR52 [3]): 2100 nM

COc1ccccc1CNCCCCCCNCCCCCCCCNCCCCCCNCc1ccccc1OC [methoctramine]
intracellular calcium ion levels (GPR52 [4]): increased dose-dependently | calcium level increase (ratio of Fura-2 fluorescence) on addition after glutamate ([2]; 10 μM glutamate, then 0.2 mM methoctramine during diminution of the calcium increase, n=11 neurons (FIG. 4)): reactivated to induce the calcium level increase | calcium level increase (ratio of Fura-2 fluorescence), compound alone without glutamate ([2]; 0.2 mM methoctramine alone, glutamate not added beforehand, n=27 neurons (FIG. 5)): any increase in calcium levels was not observed

COC(=O)[C@H]1[C@H]2C[C@@H]3c4[nH]c5cc(OC)ccc5c4CCN3C[C@H]2C[C@@H](OC(=O)c2cc(OC)c(OC)c(OC)c2)[C@@H]1OC [reserpine]
intracellular calcium ion levels (GPR52 [4]): increased dose-dependently | internalization of GPR52-GFP fused protein (GFP fluorescence moved from cell membrane to cytoplasm) (human GPR52-GFP): internalization occurred | intracellular cAMP levels (GPR52 [5]): detected dose-dependently only in the human GPR52 expression CHO cell line
